# In patent publication US20060135461A1, “Reduction of hair growth” (priority 2004, published 2006):
# Where a name gives a salt, the structure may show the parent alone. Read-outs that look alike come from different tables or passages of the source.
# Experiments:
# human hair follicles = test: Human Hair Follicle Growth Assay; format: cell-based; conditions: for Length Increase (mm): follicle length day 6 minus day 0
# From the text: Human Hair Follicle Growth Assay
# Human skin was obtained from a plastic surgeon as a by-product of face-lift procedures. The skin samples generally consisted of haired and non-haired regions taken from the area of the face. Immediately after removal, the skin was placed in Williams E medium containing antibiotics, and kept refrigerated. The Williams E medium was commercially obtained (Life Technologies, Gaithersburg, Md.), and has been formulated with essential nutrients for maintaining viability of hair follicle in an in-vitro environment.
# Human hair follicles in growth phase (anagen) were isolated from face-lift tissue under a dissecting scope using a scalpel and watchmakers forceps. The skin was sliced into thin strips exposing 2-3 rows of follicles that could readily be dissected. Follicles were placed into 0.5 ml Williams E medium supplemented with 2 mM L-glutamine, 10 ug/ml insulin, 10 ng/ml hydrocortisone, 100 units penicillin, 0.1 mg/ml streptomycin and 0.25 μg/ml amphotericin B. The follicles were incubated in 24 well plates (1 follicle/well) at 37° C. in an atmosphere of 5% CO2 and 95% air. Hair follicle images were taken in the 24-well plates under the dissecting scope under a power of 20×. Hair follicle lengths were measured on day 0 (day follicles were placed in culture) and again on day 6-7. In this system follicles appear to fully differentiate into a hair fiber and increase in length at a rate similar to the human, in vivo, rate of about 0.3 mm/day. For testing survivin inhibitors, the inhibitor was included in the culture medium from time 0 and remained in the medium throughout the course of the experiment.
# survivin = test: Determination of Hair Follicle Survivin Protein Content by ELISA; format: cell-based, human; conditions: for Survivin Protein: human hair follicles in vitro, normalized to total protein; for Inhibition: survivin protein level
# Experimental: Determination of Hair Follicle Survivin Protein Content by ELISA (Enzyme-Linked Immunosorbent Assay)
# For protein extraction, 5-micron cryosections of the hair follicles were collected into the centrifuge tubes, followed by short time incubation with the lysis buffer (BD Bioscience; CA; Cat #K 1848-1). The solutions were centrifuged for 30 minutes at 14,000×g at 4° C., and the supernatants were frozen and stored at −80° C. For quantification of survivin protein, a commercially available ELISA kit was used, following the manufacturer's instructions (Assay Design Inc; Michigan; Cat # 900-111). Total protein concentration in the extracts was determined by using the bicinchoninic acid (BCA) protein assay (Pierce Chemical Company, Rockford; Cat #23225). The readings of optical density were performed, using EL340 Bio Kinetics microplate reader (Bio-Tek Instruments Inc). The survivin levels (in pg/ml) were normalized against the total amount of protein (in ug/ml) extracted from hair follicles.
# flank organ hair growth = test: Golden Syrian Hamster Assay; format: in vivo; conditions: for % Inhibition: hair mass vs vehicle side; for Treated Side: hair mass
# From the text: Golden Syrian Hamster Assay
# Male intact Golden Syrian hamsters are considered acceptable models for human beard hair growth in that they display oval shaped flank organs, one on each side, each about 8 mm. in major diameter. These organs produce fine light colored hair typical of the animal pelage found on the body. In response to androgens the flank organs produce dark coarse hair similar to male human beard hair. To evaluate the effectiveness of a composition, the flank organs of each of a group of hamsters are depilated by applying a thioglycolate-based chemical depilatory (Surgex) and/or shaved. To one organ of each animal 10 μl of vehicle alone once a day is applied, while to the other organ of each animal an equal amount of vehicle containing a survivin inhibitor. After thirteen applications (one application per day for five days a week), the flank organs are shaved and the amount of recovered hair (hair mass) from each is weighed. For certain experiments, where indicated, the treatment period was for less than 13 applications. The reduced treatment period allowed for determination of onset in activity. Percent-reduction of hair growth is calculated by subtracting the hair mass (mg) value of the test compound treated side from the hair mass value of the vehicle treated side; the delta value obtained is then divided by the hair mass value of the vehicle treated side, and the resultant number is multiplied by 100. Visual evaluations comparing hair regrowth between the drug treated and the vehicle control site were made generally on day-8, day-15 and on day-19. These observations provide an identification of onset in activity (and thus efficacy).
# [1] = 5% topical, vehicle 20% propylene glycol in ethanol
# [2] = 10% topical, vehicle 10% DMSO in ethanol, water, emerest, and propylene glycol
smiles,measurement,setting,value
"CC[C@H](CO)Nc1nc(NCc2ccccc2)c2ncn(C(C)C)c2n1 [Roscovitine, (R)-2-[[9-(1-methylethyl)-6-[(phenylmethyl)amino]-9H-purin-2-yl]amino]-1-butanol]",Length Increase in mm,human hair follicles; 10 uM Roscovitine in culture medium,0.97 ± 0.13 mm
same,Length Increase in mm,human hair follicles; 15 uM Roscovitine in culture medium,0.5 ± 0.1 mm
same,Length Increase in mm,human hair follicles; 20 uM Roscovitine in culture medium,0.05 ± 0.05 mm
same,inhibition at 10 µM,"human hair follicles; Homo sapiens, 10 uM Roscovitine vs control",42%
same,inhibition at 15 µM,"human hair follicles; Homo sapiens, 15 uM Roscovitine vs control",60%
same,inhibition at 20 µM,"human hair follicles; Homo sapiens, 20 uM Roscovitine vs control, read-out: Hair Growth Inhibition",80%
same,Survivin Protein,survivin; 15 uM Roscovitine,0.03 pg/mg
same,Survivin Protein,survivin; 20 uM Roscovitine,0.007 pg/mg
same,Inhibition,survivin; 15 uM Roscovitine vs control,62%
same,Inhibition,survivin; 20 uM Roscovitine vs control,95%
"CC(Cc1ccc(OC(=O)CN(C)C)c(OC(=O)CN(C)C)c1)C(C)Cc1ccc(OC(=O)CN(C)C)c(OC(=O)CN(C)C)c1 [G4N, meso-1,4-bis[(3,4-dimethylaminoacetoxy)phenyl]-(2R,3S)-dimethylbutane hydrochloride salt]",% Inhibition,flank organ hair growth; [1],48 ± 6%
same,Treated Side,flank organ hair growth; [1],1.17 ± 0.2 mg
same,Length Increase (mm),human hair follicles; G4N 20 uM in culture medium,1.19 ± 0.11 mm
same,Length Increase (mm),human hair follicles; G4N 50 uM in culture medium,0.61 ± 0.14 mm
same,inhibition at 20 µM,"human hair follicles; Homo sapiens, 144 h, 20 uM, hair growth vs control, day 6, read-out: % Inhibition",30%
same,inhibition at 50 µM,"human hair follicles; Homo sapiens, 144 h, 50 uM, hair growth vs control, day 6",64%
"COc1cc([C@H]2Oc3cc([C@H]4Oc5cc(O)cc(O)c5C(=O)[C@@H]4O)ccc3O[C@@H]2CO)ccc1O [Silibinin, (2R,3R)-2-[(2R,3R)-2,3-dihydro-3-(4-hydroxy-3-methoxyphenyl)-2-(hydroxymethyl)-1,4-benzodioxin-6-yl]-2,3-dihydro-3,5,7-trihydroxy-4H-1-benzopyran-4-one]",% Inhibition,flank organ hair growth; [2],62.1 + 5.5%
same,Treated Side,flank organ hair growth; [2],0.77 ± .14 mg
